# According to patent US11191743B2, “Modulators of zinc activated cation channel” (Dignity Health, priority 2016, dated 2021):
# Entries after “also recorded” stand apart in the source; their conditions may differ. Like-named read-outs stand apart in the source and are kept apart here.
# Assays:
# [1] = molecular target: T1, ZACN (Homo sapiens, UniProt Q401N2); test: Two-electrode voltage-clamp, ZACN expressed in Xenopus laevis oocytes: inhibition or modulation of spontaneous, zinc-activated and suramin-activated current; format: cell-based; set-up: host or cells: Xenopus laevis oocytes injected with cRNA (pGEMHE vector, T7 transcript); conditions: for mode of antagonism: IC50 at 500 μM vs 2 mM Zn2+
# T1 sequence (Q401N2 26-412): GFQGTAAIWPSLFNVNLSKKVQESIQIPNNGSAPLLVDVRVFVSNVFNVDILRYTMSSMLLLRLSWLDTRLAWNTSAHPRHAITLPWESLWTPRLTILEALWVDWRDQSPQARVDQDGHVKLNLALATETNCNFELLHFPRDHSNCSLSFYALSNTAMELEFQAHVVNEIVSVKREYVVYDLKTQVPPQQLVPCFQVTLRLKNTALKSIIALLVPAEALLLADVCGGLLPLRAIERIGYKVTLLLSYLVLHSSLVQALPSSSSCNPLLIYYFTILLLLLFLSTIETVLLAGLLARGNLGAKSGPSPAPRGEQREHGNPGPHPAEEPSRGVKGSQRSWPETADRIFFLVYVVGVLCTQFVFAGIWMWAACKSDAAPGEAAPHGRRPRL
# Method: Stage IV oocytes from Xenopus laevis were injected with Ing of ZACN human mRNA. Prior to recording, oocytes were incubated in the oocyte Ringer's Solution (OR2) with 10 μM D-tubocurarine to inhibit spontaneous channel opening. The oocytes were incubated at 14° C. for three to five days following mRNA injection before recording with two-electrode voltage-clamp. […] Current levels in response to drug applications were normalized to the response to the same concentration of zinc in the absence of the drug. Peak current inhibitions were fitted to the Hill equation to derive IC50 values.
# (§1) The cDNA encoding wild type, human ZACN was purchased from OpenBiosystems, and cloned into the pGEMHE vector in the T7 orientation. For cRNA synthesis, cDNA templates were PCR amplified using primers that cover the M13 forward and reverse regions and high fidelity Phusion DNA polymerase (New England Biolab, Ipswich, Mass., USA). PCR products were then purified and served as templates for cRNA synthesis. cRNAs were transcribed by T7 RNA polymerase (Promega, Madison, Wis., USA) using standard in vitro transcription protocols. After digestion of the DNA template by RNase-free DNase I, cRNAs were purified and resuspended in diethyl pyrocarbonate (DEPC)-treated water. cRNA integrity was examined on a 1% agarose gel, and cRNA concentration was determined by optical density measurements at 260 nm using an Eppendorf Biophotometer.
# (§2) Oocytes were harvested from female Xenopus laevis (Xenopus I, Ann Arbor, Mich., USA), using the protocol “Xenopus Care and Use” approved by the Institutional Animal Care and Use Committee of the St. Joseph's Hospital and Medical Center. Stage VI oocytes were selected and incubated at 16° C. before injection. Micropipettes for injection were pulled from borosilicate glass (Drummond Scientific, Broomall, Pa., USA) on a Sutter P87 horizontal puller, and the tips were cut with forceps to ≈40 μm in diameter. cRNAs encoding ZACN was drawn up into the micropipette and injected into oocytes with a Nanoject micro-injection system (Drummond Scientific) in a total volume of ˜60 nl and total cRNA of ˜20 ng for each oocyte.
# (§3) ValveLink 16 computer-controlled perfusion system was used to switch solutions between the OR2 and a test solution. The perfusion chamber was grounded through an agar salt bridge to avoid alterations in junction potential between the Ag/AgCl grounding electrode and solution when solution/drug changes occurred. Oocytes were voltage-clamped at −70 mV to measure agonist-induced currents using an AxoClamp 900A amplifier (Axon Instruments, Foster City, Calif., USA). The current signal was low-pass filtered at 20 Hz with the built-in 4-pole low-pass Bessel filter and digitized at 100 Hz with a Digidata1440a and pClamp 10 software (Molecular Devices).
# (§4) For each oocyte, concentration-inhibition curves for drug-induced inhibition of zinc-activated current responses or concentration response curves for agonist-induced current of the ZACN were fit to the Hill equation using least squares methods (Prism 6.0, GraphPad Software, Inc., San Diego, Calif., USA) to derive IC50 or EC50 values (the concentration required for inducing a half maximal current), Hill coefficients (the slope factor), and maximum current levels in absolute terms. Current levels in each oocyte were normalized to the maximum current in the absence of the inhibitor, allowing normalized data to be averaged across multiple oocytes and to be fit again to the Hill equation. All data are presented as mean±SEM (standard error).
# [2] = molecular target: T1, ZACN; test: Two-electrode voltage-clamp, ZACN expressed in Xenopus laevis oocytes: agonist-induced current; format: cell-based; set-up: host or cells: Xenopus laevis oocytes injected with cRNA (pGEMHE vector, T7 transcript)
# From the text: as §1, §2
# as §3, with “Two to 5 days after injection, oocytes expressing ZACN were placed in a home-made, small volume chamber and a 16-channel manifold, continuously perfused with oocyte Ringer's solution (OR2), which consisted of (in mM) 92.5 NaCl, 2.5 KCl, 1 CaCl2, 1 MgCl2 and 5 HEPES, pH 7.5. ValveLink” for “ValveLink”
# as §4
Compound,antagonist activity on human ZACN [1],agonist activity on human ZACN (words) [2],further results
CNCC[C@@H](Oc1ccccc1C)c1ccccc1 [tomoxetine],acted as antagonists,–,IC50s relative to clinical concentrations [1]: clinically relevant concentrations; relative potency / IC50 for the Zn2+-induced current among seven tested antidepressants [1]: lower IC50 values; mode of antagonism [1]: non-competitive; relative potency / IC50 for the Zn2+-induced current among seven tested antidepressants ([1]; listed as tomoxentine): most potent antagonists
Cc1cc2nc3ccc(N(C)C)cc3[s+]c2cc1N.[Cl-] [toluidine blue],antagonists,–,"high sensitivity component of antagonism, concentration range [1]: nano-molar range; low sensitivity form of antagonism, concentration range [1]: micromolar range"
brilliant blue,–,activate the human ZACN,–
CNCCCN1c2ccccc2CCc2ccccc21 [desipramine],acted as antagonists,–,IC50s relative to clinical concentrations [1]: clinically relevant concentrations; relative potency / IC50 for the Zn2+-induced current among seven tested antidepressants [1]: lower IC50 values; mode of antagonism [1]: non-competitive; relative potency / IC50 for the Zn2+-induced current among seven tested antidepressants ([1]; listed as desipranine): most potent antagonists
Cc1cc2nc3ccc(N(C)C)cc3nc2cc1N.Cl [neutral red],antagonists,–,"high sensitivity component of antagonism, concentration range [1]: nano-molar range; low sensitivity form of antagonism, concentration range [1]: micromolar range"
CN(C)c1ccc2nc3ccc(=[N+](C)C)cc-3sc2c1 [methylene blue],antagonists,–,"high sensitivity component of antagonism, concentration range [1]: nano-molar range; low sensitivity form of antagonism, concentration range [1]: micromolar range"
O=C(Nc1cccc(C(=O)Nc2ccc(S(=O)(=O)O)c3cc(S(=O)(=O)O)cc(S(=O)(=O)O)c23)c1)Nc1cccc(C(=O)Nc2ccc(S(=O)(=O)O)c3cc(S(=O)(=O)O)cc(S(=O)(=O)O)c23)c1 [NF-023],–,agonist,–
pentosan polysulfate,–,agonist of the human ZACN with high efficacy,agonist activity on human ZACN (words) ([2]; listed as pentosane polysulfate): agonist
O=C(Nc1cccc(C(=O)Nc2cc(C(=O)Nc3ccc(S(=O)(=O)O)c4cc(S(=O)(=O)O)cc(S(=O)(=O)O)c34)ccc2F)c1)Nc1cccc(C(=O)Nc2cc(C(=O)Nc3ccc(S(=O)(=O)O)c4cc(S(=O)(=O)O)cc(S(=O)(=O)O)c34)ccc2F)c1 [NF-157],–,efficacious agonist,agonist activity on human ZACN (words) ([2]; listed as NF157): agonists
Cc1ccc(C(=O)Nc2ccc(S(=O)(=O)O)c3cc(S(=O)(=O)O)cc(S(=O)(=O)O)c23)cc1NC(=O)c1cccc(NC(=O)Nc2cccc(C(=O)Nc3cc(C(=O)Nc4ccc(S(=O)(=O)O)c5cc(S(=O)(=O)O)cc(S(=O)(=O)O)c45)ccc3C)c2)c1 [suramin],–,agonists; also recorded: efficacious agonist,–
Nc1ncnc2c1ncn2[C@@H]1O[C@H](COP(=O)(O)OP(=O)(O)OP(=O)(O)O)[C@@H](O)[C@H]1O [ATP],inhibitor,–,effect on spontaneous current / spontaneous opening [1]: inhibits; effect on suramin-activated current [1]: positive allosteric modulator; also recorded: potentiates; effect on zinc-activated current [1]: antagonist; also recorded: inhibits
CNCCC(Oc1ccc(C(F)(F)F)cc1)c1ccccc1 (centres unmarked) [fluoxetine],acted as antagonists,–,mode of antagonism [1]: non-competitive
O=C(Nc1cc(C(=O)Nc2ccc(S(=O)(=O)O)cc2)cc(C(=O)Nc2ccc(S(=O)(=O)O)cc2)c1)Nc1cc(C(=O)Nc2ccc(S(=O)(=O)O)cc2)cc(C(=O)Nc2ccc(S(=O)(=O)O)cc2)c1 [NF-110],–,agonist,–
O=S1(=O)OC(c2cc(Br)c(O)c(Br)c2)(c2cc(Br)c(O)c(Br)c2)c2ccccc21 [bromophenol blue],–,activate the human ZACN,–
Cc1cc(-c2ccc(/N=N/c3ccc4c(S(=O)(=O)O)cc(S(=O)(=O)O)c(N)c4c3O)c(C)c2)ccc1/N=N/c1ccc2c(S(=O)(=O)O)cc(S(=O)(=O)O)c(N)c2c1O [Evans blue],–,agonists; also recorded: efficacious agonist,–
Cc1cc(-c2ccc(/N=N/c3c(S(=O)(=O)O)cc4cc(S(=O)(=O)O)cc(N)c4c3O)c(C)c2)ccc1/N=N/c1c(S(=O)(=O)O)cc2cc(S(=O)(=O)O)cc(N)c2c1O [Trypan blue],–,agonists; also recorded: efficacious agonist,–
Cc1c(C2(c3cc(C(C)C)c(O)c(Br)c3C)OS(=O)(=O)c3ccccc32)cc(C(C)C)c(O)c1Br [bromothymol blue],–,activate the human ZACN,–
COc1cc(-c2ccc(/N=N/c3ccc4c(S(=O)(=O)O)cc(S(=O)(=O)O)c(N)c4c3O)c(OC)c2)ccc1/N=N/c1ccc2c(S(=O)(=O)O)cc(S(=O)(=O)O)c(N)c2c1O [Chicago sky blue],–,activate the human ZACN,–
CN1CCN2c3ccccc3Cc3ccccc3C2C1 (centres unmarked) [mianserin],acted as antagonists,–,mode of antagonism [1]: non-competitive
O=C(Nc1ccc(C(=O)Nc2ccc(C(=O)Nc3ccc(S(=O)(=O)O)c4cc(S(=O)(=O)O)cc(S(=O)(=O)O)c34)cc2)cc1)Nc1ccc(C(=O)Nc2ccc(C(=O)Nc3ccc(S(=O)(=O)O)c4cc(S(=O)(=O)O)cc(S(=O)(=O)O)c34)cc2)cc1 [NF-279],–,agonists; also recorded: efficacious agonist,–
CCOc1ccccc1OC(c1ccccc1)C1CNCCO1 (centres unmarked) [reboxetine],acted as antagonists,–,mode of antagonism [1]: non-competitive
O=C(Nc1cc(C(=O)Nc2ccc(S(=O)(=O)O)cc2S(=O)(=O)O)cc(C(=O)Nc2ccc(S(=O)(=O)O)cc2S(=O)(=O)O)c1)Nc1cc(C(=O)Nc2ccc(S(=O)(=O)O)cc2S(=O)(=O)O)cc(C(=O)Nc2ccc(S(=O)(=O)O)cc2S(=O)(=O)O)c1 [NF-449],–,agonist,concentration at which the small high sensitivity component is saturated [2]: 1 µM
COc1ccc(C(CN(C)C)C2(O)CCCCC2)cc1 (centres unmarked) [venlafaxine],acted as antagonists,–,mode of antagonism [1]: non-competitive
heparin,–,agonist,–
CN(C)CCC=C1c2ccccc2COc2ccccc21 [doxepin],acted as antagonists,–,mode of antagonism [1]: non-competitive
